From PubChem BioAssay (NCI)
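Five concentrations, 48 hours, 96-well plates. At the GI50, growth is halved. TGI: total growth inhibition.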

Legend:
Test in all cases: inhibition of tumour cell growth, NCI panel, 48 h
786-0 renal = system: 786-0 renal
COLO 205 colon = system: COLO 205 colon
EKVX NSCLC = system: EKVX NSCLC
HCT-116 colon = system: HCT-116 colon
OVCAR-3 ovarian = system: OVCAR-3 ovarian
SF-539 CNS = system: SF-539 CNS
SK-MEL-5 melanoma = system: SK-MEL-5 melanoma
SN12C renal = system: SN12C renal
HS 578T breast = system: HS 578T breast
MDA-MB-435 = system: MDA-MB-435

SMILES | TGI (786-0 renal) [µM] | TGI (COLO 205 colon) [µM] | TGI (EKVX NSCLC) [µM] | TGI (HCT-116 colon) [µM] | TGI (OVCAR-3 ovarian) [µM] | TGI (SF-539 CNS) [µM] | TGI (SK-MEL-5 melanoma) [µM] | TGI (SN12C renal) [µM] | GI50 (786-0 renal) [µM] | GI50 (COLO 205 colon) [µM] | GI50 (HCT-116 colon) [µM] | GI50 (HS 578T breast) [µM] | TGI (HS 578T breast) [µM] | GI50 (MDA-MB-435) [µM] | TGI (MDA-MB-435) [µM] | GI50 (OVCAR-3 ovarian) [µM] | GI50 (SF-539 CNS) [µM] | GI50 (SK-MEL-5 melanoma) [µM] | GI50 (SN12C renal) [µM] | GI50 (EKVX NSCLC) [µM]
CC1=C(C(=O)Nc2cc(F)c(F)cc2F)C(c2ccc([N+](=O)[O-])cc2)C(C(=O)Nc2cc(F)c(F)cc2F)=C(C)N1 | > 100 | > 100 | > 100 | > 100 | 80.8 | > 100 | > 100 | > 100 | – | – | – | – | – | – | – | – | – | – | – | –
COc1cc(-c2nn(-c3cccc(NC(=O)c4ccc(Cl)c(C(F)(F)F)c4)c3)cc2-c2ccncc2)ccc1Cl | > 32.5 | 17.6 | – | > 32.5 | 15.2 | 15 | 8.69 | > 32.5 | 8.2 | 3.5 | 2.04 | 1.78 | > 29.5 | 0.658 | 1.79 | 1.43 | 2.63 | 1.13 | 7.15 | –
CCOc1ccc(NC(=O)CC2C(=O)Nc3ccccc3S2(=O)=O)cc1 (centres undefined) | > 100 | > 100 | > 100 | > 100 | > 100 | > 100 | – | > 100 | – | – | – | – | – | – | – | – | – | – | – | –
O=C(NNc1ccccc1)/C(=C/c1ccc2c(c1)OCO2)NC(=O)c1ccccc1 | > 100 | > 100 | > 100 | > 100 | > 100 | > 100 | > 100 | > 100 | – | – | – | – | – | – | – | – | – | – | – | –
CC(=O)C1=C(O)C2C3c4c[nH]c5cccc(c45)CC3C(C)(C)N2C1=O (centres undefined) | > 100 | > 100 | > 100 | – | 74.3 | 44.4 | 27.2 | – | – | – | – | – | – | – | – | – | – | – | – | –
O=C1NC(=NCCCc2ccccc2)S/C1=C\c1ccc2ncccc2c1 | 13 | > 20.7 | – | 14.1 | 10.6 | 9.49 | 9.8 | 20.9 | 5.47 | 6.98 | 3.6 | 5.11 | 16 | 5.81 | > 18 | 4.81 | 4.05 | 4.63 | 6.13 | –
CSC1NC(c2ccc(Cl)cc2)=C(C#N)C(=O)N1C1OCC(OC(C)=O)C(OC(C)=O)C1OC(C)=O (centres undefined) | > 100 | > 100 | > 100 | – | > 100 | > 100 | > 100 | > 100 | – | – | – | – | > 100 | – | > 100 | – | – | – | – | –
O=C(CC(Cl)=C(Cl)Cl)c1cccc(Cl)c1Cl | > 100 | > 100 | > 100 | > 100 | – | > 100 | > 100 | > 100 | 44.7 | > 100 | 42.6 | > 100 | > 100 | – | – | – | 84.1 | > 100 | 46.9 | 57.7
CC(=O)NNc1nc(C)c(C(=O)NNC(=O)C(=O)Nc2ccc(Cl)cc2Cl)s1 | > 100 | > 100 | > 100 | > 100 | 50.5 | 99.5 | > 100 | > 100 | – | – | – | – | – | – | – | – | – | – | – | –
COC(=O)[C@H]1CCCN1C(=O)[C@H]1CCCN1C(=O)[C@H](Cc1c[nH]c2ccccc12)NC(=S)Nc1cc(C(F)(F)F)cc(C(F)(F)F)c1 | 83 | 4.28 | – | > 100 | > 100 | 30.4 | > 100 | > 100 | 13.8 | 2.08 | 4.27 | 6.1 | > 100 | 5.6 | > 100 | 8.43 | 3.93 | 5.14 | 7.32 | –
COc1cccc(-c2cc(=O)c3ccccc3[nH]2)c1 | > 100 | > 38.2 | > 100 | > 100 | > 31.6 | 18.7 | > 100 | > 100 | – | – | – | – | – | – | – | – | – | – | – | –
COc1ccc(/C=C/C(=O)c2sc(-n3nc(-c4ccccc4)cc3-c3ccccc3)nc2C)cc1 | > 100 | > 100 | > 100 | > 100 | > 100 | > 100 | > 100 | > 100 | > 100 | > 100 | > 100 | – | – | – | – | – | > 100 | – | – | 51.1
CC(C)(C)C(C#N)(C#N)c1ccc(C(C#N)(C#N)C(C)(C)C)nn1 | > 100 | > 100 | > 100 | – | > 100 | > 100 | > 100 | > 100 | – | – | – | – | – | – | – | – | – | – | – | –
CCn1c(-c2nonc2N)nc2cncc(C(=O)N3CC[C@H](N)C3)c21 | > 25 | 24.7 | – | > 25 | > 25 | > 25 | > 25 | > 25 | > 20.4 | 5.87 | 9.9 | 0.559 | > 25 | > 25 | > 25 | > 25 | 2.63 | > 25 | > 25 | –
CN1c2ccccc2N(C(=O)c2ccccc2)C(CC(=O)O)c2cccn21 (centres undefined) | > 100 | > 100 | > 100 | – | > 100 | > 100 | > 100 | > 100 | – | – | – | – | – | – | – | – | – | – | – | –
C[C@]12CCC3[C@@H](CC[C@@H]4c5nonc5CC[C@]34C)C1CC[C@@H]2O (some centres undefined) | 75.5 | 71.3 | 75.5 | – | 62.1 | 32.3 | 41 | 53.2 | – | – | – | – | – | – | – | – | – | – | – | –
COc1ccc(/C(C#N)=C2C=C/C(=N/O)c3ccccc3\2)cc1 | 15 | 3.52 | – | 11 | 2.79 | 0.67 | 1.26 | 13.5 | 0.457 | 1.34 | 0.328 | 0.258 | 6.33 | 0.0388 | 0.179 | 0.314 | 0.2 | 0.323 | 0.418 | –
COC(=O)c1ccc(NC(=O)Oc2ccc(N(CCCl)CCCl)cc2)cc1 | 25.6 | > 100 | – | > 100 | 22.3 | 18.9 | > 100 | 94.1 | 4.95 | 9.88 | 11.2 | 18.8 | 97.9 | 11.5 | > 100 | 7.77 | 2.92 | 13.1 | 2.97 | –
c1ccc2c(c1)cc1n2CC2CN=NC12 (centres undefined) | > 100 | – | > 100 | > 100 | > 100 | > 100 | > 100 | > 100 | – | – | – | – | – | – | – | – | – | – | – | –
